# Patent US20040119048A1, “Process of making aqueous perborate bleach composition” (Unilever Home & Personal Care USA, Divison of Conopco, Inc., priority 2002, published 2004)
# Experiment: Iterative determination of perborate solubility in water and polyol/water (visual appearance, pH)
# Format: physicochemical
# Method: An iterative process was used to determine the extent of perborate solubilty in water and polyol/water. 1.5 g of Na perborate monohydrate was added either to 100 g of water (Table 1A) or to 90 g water and 10 g sorbitol (70% active) (Table 1B). The mixture was stirred until all of sodium perborate monohydrate was dissolved. A 0.5 g aliquot of sodium perborate monohydrate was then added to the solution while stirring and visually monitored to see if all the added sodium perborate monohydrate dissolves. If the aliquot dissolved, another 0.5 g of sodium perborate monohydrate would be added. This procedure was continued until the added perborate no longer appeared to dissolve.
smiles,measurement,setting,value
"O.O=BO[O-].[Na+] [Sodium Perborate monohydrate, sodium perborate monohydrate]",solubility in water in the presence of polyol,90 g water + 10 g sorbitol (70%),up to 8.5 g
same,increase of perborate solubility by polyol,"aqueous environment, with polyol vs without",about 400%
